Reference: PubChem BioAssay (NCI)
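Assay format: 96-well plates, 48-hour exposure. TGI: concentration producing complete growth inhibition.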

Key:
Assay in all cases: NCI-60 cell line screen, 48 h
BT-549 breast = test system: BT-549 breast
CAKI-1 renal = test system: CAKI-1 renal
HCT-15 colon = test system: HCT-15 colon
HOP-92 NSCLC = test system: HOP-92 NSCLC
KM12 colon = test system: KM12 colon
LOX IMVI melanoma = test system: LOX IMVI melanoma
MDA-N = test system: MDA-N
NCI-H226 lung = test system: NCI-H226 lung
NCI-H23 lung = test system: NCI-H23 lung
NCI/ADR-RES ovarian = test system: NCI/ADR-RES ovarian
OVCAR-3 ovarian = test system: OVCAR-3 ovarian
RXF 393 renal = test system: RXF 393 renal
SF-539 CNS = test system: SF-539 CNS
SK-MEL-28 melanoma = test system: SK-MEL-28 melanoma
SK-OV-3 ovarian = test system: SK-OV-3 ovarian
SNB-75 CNS = test system: SNB-75 CNS
TK-10 renal = test system: TK-10 renal
U251 CNS = test system: U251 CNS
UACC-62 melanoma = test system: UACC-62 melanoma
MALME-3M melanoma = test system: MALME-3M melanoma

SMILES | TGI (BT-549 breast) [µM] | TGI (CAKI-1 renal) [µM] | TGI (HCT-15 colon) [µM] | TGI (HOP-92 NSCLC) [µM] | TGI (KM12 colon) [µM] | TGI (LOX IMVI melanoma) [µM] | TGI (MDA-N) [µM] | TGI (NCI-H226 lung) [µM] | TGI (NCI-H23 lung) [µM] | TGI (NCI/ADR-RES ovarian) [µM] | TGI (OVCAR-3 ovarian) [µM] | TGI (RXF 393 renal) [µM] | TGI (SF-539 CNS) [µM] | TGI (SK-MEL-28 melanoma) [µM] | TGI (SK-OV-3 ovarian) [µM] | TGI (SNB-75 CNS) [µM] | TGI (TK-10 renal) [µM] | TGI (U251 CNS) [µM] | TGI (UACC-62 melanoma) [µM] | TGI (MALME-3M melanoma) [µM]
O=C(OCc1ccccc1)N(CCCCN(CCCNC(=O)C(F)(F)F)C(=O)OCc1ccccc1)CCCNC(=O)C(F)(F)F | > 100 | 3.55 | > 100 | > 100 | > 100 | > 100 | > 100 | > 100 | > 100 | > 100 | > 100 | > 100 | > 100 | > 100 | > 100 | > 100 | > 100 | > 100 | > 100 | –
O=C1NC(N/N=C/C(O)C(O)C(O)C(O)CO)=N/C1=C\c1ccco1 (stereo unspecified) | > 100 | > 100 | > 100 | > 100 | > 100 | > 100 | > 100 | > 100 | > 100 | > 100 | > 100 | > 100 | > 100 | > 100 | > 100 | > 100 | > 100 | > 100 | > 100 | > 100
COc1ccc(N2CN3OC(=O)N(c4ccc(OC)cc4)[C@@]3(c3ccccc3)C2)cc1 | > 100 | > 100 | > 100 | > 100 | > 100 | > 100 | 22.6 | > 100 | > 100 | 32 | 48.9 | 74.6 | > 100 | > 100 | > 100 | 95.2 | > 100 | > 100 | > 100 | > 100
C1=CC2C=CC(C=C1)P2c1ccccc1 (stereo unspecified) | > 100 | > 100 | > 100 | > 100 | > 100 | > 100 | > 100 | > 100 | > 100 | > 100 | > 100 | > 100 | > 100 | > 100 | > 100 | > 100 | > 100 | > 100 | > 100 | > 100
C=C1C[C@@H]2CC[C@@]34CC5O[C@H]6C(O[C@H]7CC[C@H](CC(=O)O[C@@H]8[C@@H](C)[C@@H]9O[C@@H]%10C[C@]%11(C[C@@H]%12O[C@]%13(C[C@H](C)[C@@H]%14O[C@@H]%15CC(C(O)CO)O[C@@H]%15C[C@@H]%14O%13)C[C@H](C)[C@@H]%12O%11)O[C@@H]%10C[C@@H]9O[C@H]8CC8O[C@@H](CC[C@@H]1O2)C[C@@H](C)C8(O)CO)O[C@@H]7[C@@H]6O3)[C@H]5O4 (stereo partly specified) | 0.469 | > 1 | > 1 | > 1 | > 1 | > 1 | > 1 | > 1 | > 1 | > 1 | > 1 | > 1 | – | > 1 | > 1 | > 1 | > 1 | > 1 | > 1 | > 1
NC(N)=Nc1ccc(-c2ccc(N=C(N)N)cc2)cc1 | > 100 | > 100 | > 100 | > 100 | > 100 | > 100 | > 100 | 65.4 | > 100 | > 100 | > 100 | > 100 | 74.7 | > 100 | > 100 | 86.1 | 36.5 | > 100 | > 100 | 62.6
O=c1c2cccnc2n2n1Cc1ccccc1C2 | > 100 | > 100 | > 100 | > 100 | – | > 100 | > 100 | > 100 | > 100 | > 100 | > 100 | > 100 | > 100 | > 100 | > 100 | > 100 | > 100 | > 100 | > 100 | > 100
COc1cccc2c1C(=O)C1=C(C2=O)C(O)CC(C)(C)O1 (stereo unspecified) | > 100 | > 100 | > 100 | > 100 | 91.2 | 57.3 | 36 | > 100 | 74.5 | 75.7 | 40.5 | > 100 | > 100 | > 100 | > 100 | > 100 | > 100 | > 100 | 60.9 | 33.7
Cn1c2ccc([N+](=O)[O-])cc2c(=O)n1Cc1ccccc1F | > 100 | > 100 | > 100 | 91.6 | > 100 | > 100 | > 100 | 92.4 | > 100 | 76.3 | > 100 | > 100 | 79.6 | > 100 | > 100 | 70.2 | > 100 | > 100 | > 100 | > 100
O=[N+]([O-])C(=C(Cl)Cl)C(Cl)=C(Cl)Cl | 0.528 | 0.699 | 0.908 | 1.03 | 5.51 | 0.0351 | 1.24 | 3.53 | 1.96 | 5.45 | 2.24 | 0.091 | 3.45 | 0.912 | 9.51 | 3.35 | 1.35 | 7.26 | 1.75 | 0.126
CCN(CC)c1ccc2cc(C(N)=O)c(=N)oc2c1 | > 100 | > 100 | > 100 | > 100 | > 100 | > 100 | > 100 | > 100 | > 100 | > 100 | > 100 | > 100 | > 100 | > 100 | > 100 | > 100 | – | > 100 | > 100 | –
Cc1ccc2c(c1)[nH]c(=S)n2C=C(C(N)=O)C(N)=O | > 100 | > 100 | > 100 | > 100 | > 100 | > 100 | > 100 | > 100 | > 100 | > 100 | > 100 | > 100 | > 100 | > 100 | > 100 | > 100 | > 100 | > 100 | > 100 | –
C=CCC1(O)CC(n2cc(C)c(=O)[nH]c2=O)OC1CO[Si](C)(C)C(C)(C)C (stereo unspecified) | > 100 | > 100 | > 100 | > 100 | > 100 | 89.6 | > 100 | > 100 | > 100 | > 100 | > 100 | > 100 | > 100 | > 100 | – | > 100 | – | > 100 | > 100 | –
N#CC(C#N)=C1C(=Cc2ccc(OCCCCCCCCCCSSCCCCCCCCCCOc3ccc(C=C4C(=C(C#N)C#N)c5ccccc5C4=C(C#N)C#N)cc3)cc2)C(=C(C#N)C#N)c2ccccc21 | 38.9 | 71.2 | 31.6 | 34.9 | 78.1 | 35.6 | 88.3 | 63.6 | 32.6 | 38.8 | 89 | 67.2 | 47 | 52.4 | – | > 100 | > 100 | 46.8 | – | –
O=C1OCN(c2ccccc2)C12CCN(Cc1ccccc1)CC2 | > 100 | > 100 | 94.6 | > 100 | 47.2 | 30.4 | 62.3 | > 100 | > 100 | > 100 | – | 33.2 | 39.7 | 34 | > 100 | 59.9 | > 100 | 31.5 | 37.2 | 43.8
C=C(C)[C@@H]1CCC2=C[C@@H](OC2=O)[C@@H](C(=C)C)C2=CC(C(=O)O)=C(C1)O2 | > 100 | > 100 | > 100 | > 100 | > 100 | > 100 | > 100 | > 100 | > 100 | > 100 | > 100 | > 100 | > 100 | – | > 100 | > 100 | > 100 | – | > 100 | > 100
Cn1c(=O)c2c3ccccc3n(C)c2n(C)c1=O | > 100 | > 100 | > 100 | > 100 | > 100 | > 100 | > 100 | > 100 | > 100 | > 100 | > 100 | > 100 | > 100 | – | 83.9 | > 100 | > 100 | > 100 | > 100 | > 100
COc1ccccc1CCN1CCN(CCCc2ccccc2)CC1 | > 100 | > 100 | > 100 | 23.2 | > 100 | > 100 | > 100 | > 100 | – | > 100 | > 100 | > 100 | > 100 | > 100 | > 100 | > 100 | > 100 | > 100 | > 100 | > 100
CS(=O)(=O)OCCCCOS(=O)(=O)CF | > 100 | > 100 | > 100 | > 92.4 | > 100 | > 100 | > 100 | > 100 | > 100 | > 100 | > 100 | > 100 | > 100 | > 100 | > 100 | > 100 | > 100 | > 100 | > 100 | > 46.4
Nc1ncc(Br)c(NCC2(CO)CCC2)n1 | > 100 | > 100 | > 100 | > 100 | > 100 | > 100 | > 100 | > 100 | > 100 | > 100 | > 100 | > 100 | > 100 | > 100 | – | > 100 | > 100 | > 100 | > 100 | > 100
COC(=O)NC(Nc1ccccn1)(C(F)(F)F)C(F)(F)F | > 100 | > 100 | > 100 | > 100 | > 100 | > 100 | > 100 | > 100 | > 100 | > 100 | > 100 | > 100 | > 100 | > 100 | > 100 | > 100 | > 100 | > 100 | > 100 | > 100
CC(C)(C)c1cc(C(=O)/C=C/c2c(Cl)cccc2Cl)cc(C(C)(C)C)c1O | 61.7 | 54.9 | 27.9 | > 95.7 | 36.8 | 28.3 | > 68.3 | 35.2 | 48.9 | 77.9 | 25.3 | 14.9 | 31.6 | 41.3 | > 100 | 34.3 | 41.5 | 24.5 | 30.3 | 37.6
NC(=O)c1ccc(C(=O)Nc2ccc([As](=O)(O)O)cc2)cc1 | > 100 | > 100 | > 100 | > 100 | > 100 | > 100 | > 100 | > 100 | > 100 | > 100 | > 100 | > 100 | – | > 100 | > 100 | > 100 | > 100 | > 100 | > 100 | > 100
